The text below walks through data of paper PMC2736896 (2009).

pKi: −log10 of the molar value.

For this assay, the target named is bilitranslocase (BTL) homologue. As to the kind of experiment: inhibition of electrogenic BSP uptake into pulp microsomes, spectrophotometric. The assay is classed as biochemical, Vitis vinifera.

Consider `O=c1c(O)c(-c2ccc(O)c(O)c2)oc2cc(O)cc(O)c12` [quercetin], for which the pKi is 4.01.

As to `O=C1C[C@@H](c2ccc(O)c(O)c2)Oc2cc(O)cc(O)c21` [eriodictyol], the pKi was 4.12.

The pKi is the Ki on a negative log10 scale, so that one unit is a factor of ten.
